Reference: the supplement of paper PMC10307832

Columns and labels:
Assay in all cases: relative viability (nuclei count vs DMSO), 5 days (fraction); higher = more cells survive
201T = test system: 201T
In short: (§1)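 Dosing by pin tool came one day after lung cancer cell lines were seeded in 1536-well plates, using either one drug or a fixed anchor-drug dose plus five library-drug doses (not always all listed) in √10 steps. After 5 days, nuclei were counted on 4× images. Relative viability is treated-well nuclei count divided by vehicle-well nuclei count, and values are medians of duplicate plates.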

BEN = test system: BEN
In short: as §1

CAL-12T = test system: CAL-12T
In short: as §1

HCC-44 = test system: HCC-44
In short: as §1

HCC-827 = test system: HCC-827
In short: as §1

HOP-62 = test system: HOP-62
In short: as §1

LCLC-103H = test system: LCLC-103H
In short: as §1

LCLC-97TM1 = test system: LCLC-97TM1
In short: as §1

LXF-289 = test system: LXF-289
In short: as §1

NCI-H1355 = test system: NCI-H1355
In short: as §1

NCI-H1395 = test system: NCI-H1395
In short: as §1

NCI-H1437 = test system: NCI-H1437
In short: as §1

NCI-H1650 = test system: NCI-H1650
In short: as §1

NCI-H1793 = test system: NCI-H1793
In short: as §1

NCI-H2023 = test system: NCI-H2023
In short: as §1

NCI-H2087 = test system: NCI-H2087
In short: as §1

NCI-H2228 = test system: NCI-H2228
In short: as §1

NCI-H2405 = test system: NCI-H2405
In short: as §1

NCI-H3122 = test system: NCI-H3122
In short: as §1

NCI-H322M = test system: NCI-H322M
In short: as §1

NCI-H647 = test system: NCI-H647
In short: as §1

NCI-H727 = test system: NCI-H727
In short: as §1

RERF-LC-KJ = test system: RERF-LC-KJ
In short: as §1

SK-LU-1 = test system: SK-LU-1
In short: as §1

For `COc1cc(N2CCC(C(N)=O)CC2)ccc1Nc1nc(N)c(Cl)c(Nc2ccccc2S(=O)(=O)C(C)C)n1` [HG-5-88-01] + CS(=O)(=O)N1CCN(Cc2cc3nc(-c4cccc5[nH]ncc45)nc(N4CCOCC4)c3s2)CC1 [Pictilisib] (partner 1 µM), the relative viability (201T; first compound 0.04 µM) was 0.71, the relative viability (201T; first compound 0.1265 µM) was 0.64 and the relative viability (201T; first compound 0.4 µM) was 0.649. The relative viability (201T; first compound 1.265 µM) was 0.729, the relative viability (201T; first compound 4 µM) was 0.739 and the relative viability (BEN; first compound 0.04 µM) was 0.504. For the same molecule, the relative viability (BEN; first compound 0.1265 µM) was 0.523, the relative viability (BEN; first compound 0.4 µM) was 0.544 and the relative viability (BEN; first compound 1.265 µM) was 0.468. It also gave a relative viability (BEN; first compound 4 µM) of 0.447, a relative viability (CAL-12T; first compound 0.04 µM) of 0.321 and a relative viability (CAL-12T; first compound 0.1265 µM) of 0.354. It also gave a relative viability (CAL-12T; first compound 0.4 µM) of 0.418, a relative viability (CAL-12T; first compound 1.265 µM) of 0.296 and a relative viability (CAL-12T; first compound 4 µM) of 0.227. For the same molecule, the relative viability (HCC-44; first compound 0.04 µM) was 0.695, the relative viability (HCC-44; first compound 0.1265 µM) was 0.569 and the relative viability (HCC-44; first compound 0.4 µM) was 0.542. It also gave a relative viability (HCC-44; first compound 1.265 µM) of 0.519, a relative viability (HCC-44; first compound 4 µM) of 0.375 and a relative viability (HCC-827; first compound 0.04 µM) of 1.02. It also gave a relative viability (HCC-827; first compound 0.1265 µM) of 0.931, a relative viability (HCC-827; first compound 0.4 µM) of 0.924 and a relative viability (HCC-827; first compound 1.265 µM) of 0.552. The relative viability (HCC-827; first compound 4 µM) was 0.56, the relative viability (HOP-62; first compound 0.04 µM) was 0.493 and the relative viability (HOP-62; first compound 0.1265 µM) was 0.765. It also gave a relative viability (HOP-62; first compound 0.4 µM) of 0.827, a relative viability (HOP-62; first compound 1.265 µM) of 0.892 and a relative viability (HOP-62; first compound 4 µM) of 0.936. It also gave a relative viability (LCLC-103H; first compound 0.04 µM) of 0.643, a relative viability (LCLC-103H; first compound 0.1265 µM) of 0.555 and a relative viability (LCLC-103H; first compound 0.4 µM) of 0.484. For the same molecule, the relative viability (LCLC-103H; first compound 1.265 µM) was 0.608, the relative viability (LCLC-103H; first compound 4 µM) was 0.426 and the relative viability (LCLC-97TM1; first compound 0.04 µM) was 0.156. The relative viability (LCLC-97TM1; first compound 0.1265 µM) was 0.185, the relative viability (LCLC-97TM1; first compound 0.4 µM) was 0.146 and the relative viability (LCLC-97TM1; first compound 1.265 µM) was 0.213. For the same molecule, the relative viability (LCLC-97TM1; first compound 4 µM) was 0.135, the relative viability (LXF-289; first compound 0.04 µM) was 0.819 and the relative viability (LXF-289; first compound 0.1265 µM) was 0.796. For the same molecule, the relative viability (LXF-289; first compound 0.4 µM) was 0.821, the relative viability (LXF-289; first compound 1.265 µM) was 0.81 and the relative viability (LXF-289; first compound 4 µM) was 0.736. The relative viability (NCI-H1355; first compound 0.04 µM) was 0.253, the relative viability (NCI-H1355; first compound 0.1265 µM) was 0.462 and the relative viability (NCI-H1355; first compound 0.4 µM) was 0.412. It also gave a relative viability (NCI-H1355; first compound 1.265 µM) of 0.414, a relative viability (NCI-H1355; first compound 4 µM) of 0.299 and a relative viability (NCI-H1395; first compound 0.04 µM) of 0.582. It also gave a relative viability (NCI-H1395; first compound 0.1265 µM) of 0.587, a relative viability (NCI-H1395; first compound 0.4 µM) of 0.598 and a relative viability (NCI-H1395; first compound 1.265 µM) of 0.584. The relative viability (NCI-H1395; first compound 4 µM) was 0.523, the relative viability (NCI-H1437; first compound 0.04 µM) was 0.519 and the relative viability (NCI-H1437; first compound 0.1265 µM) was 0.431. For the same molecule, the relative viability (NCI-H1437; first compound 0.4 µM) was 0.436, the relative viability (NCI-H1437; first compound 1.265 µM) was 0.416 and the relative viability (NCI-H1437; first compound 4 µM) was 0.264. The relative viability (NCI-H1650; first compound 0.04 µM) was 0.583, the relative viability (NCI-H1650; first compound 0.1265 µM) was 0.551 and the relative viability (NCI-H1650; first compound 0.4 µM) was 0.565. For the same molecule, the relative viability (NCI-H1650; first compound 1.265 µM) was 0.519, the relative viability (NCI-H1650; first compound 4 µM) was 0.355 and the relative viability (NCI-H1793; first compound 0.1265 µM) was 0.336. The relative viability (NCI-H1793; first compound 0.4 µM) was 0.3, the relative viability (NCI-H1793; first compound 1.265 µM) was 0.426 and the relative viability (NCI-H1793; first compound 4 µM) was 0.308. It also gave a relative viability (NCI-H2023; first compound 0.04 µM) of 0.222, a relative viability (NCI-H2023; first compound 0.1265 µM) of 0.245 and a relative viability (NCI-H2023; first compound 0.4 µM) of 0.16. The relative viability (NCI-H2023; first compound 1.265 µM) was 0.159, the relative viability (NCI-H2023; first compound 4 µM) was 0.171 and the relative viability (NCI-H2087; first compound 0.04 µM) was 0.835. It also gave a relative viability (NCI-H2087; first compound 0.1265 µM) of 1.08, a relative viability (NCI-H2087; first compound 0.4 µM) of 0.928 and a relative viability (NCI-H2087; first compound 1.265 µM) of 0.771. It also gave a relative viability (NCI-H2087; first compound 4 µM) of 0.9, a relative viability (NCI-H2228; first compound 0.04 µM) of 0.215 and a relative viability (NCI-H2228; first compound 0.1265 µM) of 0.177. It also gave a relative viability (NCI-H2228; first compound 0.4 µM) of 0.248, a relative viability (NCI-H2228; first compound 1.265 µM) of 0.144 and a relative viability (NCI-H2228; first compound 4 µM) of 0.157. For the same molecule, the relative viability (NCI-H2405; first compound 0.04 µM) was 0.286, the relative viability (NCI-H2405; first compound 0.1265 µM) was 0.465 and the relative viability (NCI-H2405; first compound 0.4 µM) was 0.363. The relative viability (NCI-H2405; first compound 1.265 µM) was 0.329, the relative viability (NCI-H2405; first compound 4 µM) was 0.451 and the relative viability (NCI-H3122; first compound 0.04 µM) was 0.252. For the same molecule, the relative viability (NCI-H3122; first compound 0.1265 µM) was 0.174, the relative viability (NCI-H3122; first compound 0.4 µM) was 0.2 and the relative viability (NCI-H3122; first compound 1.265 µM) was 0.172. The relative viability (NCI-H3122; first compound 4 µM) was 0.173, the relative viability (NCI-H322M; first compound 0.04 µM) was 0.461 and the relative viability (NCI-H322M; first compound 0.1265 µM) was 0.471. For the same molecule, the relative viability (NCI-H322M; first compound 0.4 µM) was 0.512, the relative viability (NCI-H322M; first compound 1.265 µM) was 0.441 and the relative viability (NCI-H322M; first compound 4 µM) was 0.449. The relative viability (NCI-H647; first compound 0.04 µM) was 0.342, the relative viability (NCI-H647; first compound 0.1265 µM) was 0.407 and the relative viability (NCI-H647; first compound 0.4 µM) was 0.453. For the same molecule, the relative viability (NCI-H647; first compound 1.265 µM) was 0.371, the relative viability (NCI-H647; first compound 4 µM) was 0.443 and the relative viability (NCI-H727; first compound 0.04 µM) was 0.486. The relative viability (NCI-H727; first compound 0.1265 µM) was 0.448, the relative viability (NCI-H727; first compound 0.4 µM) was 0.24 and the relative viability (NCI-H727; first compound 1.265 µM) was 0.261. It also gave a relative viability (NCI-H727; first compound 4 µM) of 0.249, a relative viability (RERF-LC-KJ; first compound 0.04 µM) of 0.588 and a relative viability (RERF-LC-KJ; first compound 0.1265 µM) of 0.714. For the same molecule, the relative viability (RERF-LC-KJ; first compound 0.4 µM) was 0.498, the relative viability (RERF-LC-KJ; first compound 1.265 µM) was 0.481 and the relative viability (RERF-LC-KJ; first compound 4 µM) was 0.412. For the same molecule, the relative viability (SK-LU-1; first compound 0.04 µM) was 0.539, the relative viability (SK-LU-1; first compound 0.1265 µM) was 0.572 and the relative viability (SK-LU-1; first compound 0.4 µM) was 0.539. It also gave a relative viability (SK-LU-1; first compound 1.265 µM) of 0.594 and a relative viability (SK-LU-1; first compound 4 µM) of 0.6.
